From the supplement of paper PMC10307832

Experiments:
Test in all cases: relative viability (nuclei count vs DMSO), 5 days (fraction); higher = more cells survive
[1] = compound: COc1cccc2cc(-c3nc([C@H]4CC[C@H](C(=O)O)CC4)n4ncnc(N)c34)[nH]c12 [OSI-027] + C[C@]1(O)C[C@@H](c2nc(-c3ccc4ccc(-c5ccccc5)nc4c3)c3c(N)nccn32)C1 [Linsitinib] (partner 1 µM)
In short: (§1)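 Five library-drug doses in √10 steps were combined with a fixed anchor-drug dose, or a single drug was given alone, by pin tool to lung cancer cell lines in 1536-well plates the day after seeding. Nuclei were stained and counted after 5 days. Relative viability is the nuclei count in treated wells over that in vehicle wells, taken as the median of duplicate plates.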

[2] = compound: CCCS(=O)(=O)Nc1ccc(F)c(C(=O)c2c[nH]c3ncc(-c4ccc(Cl)cc4)cc23)c1F [Vemurafenib] + C[C@]1(O)C[C@@H](c2nc(-c3ccc4ccc(-c5ccccc5)nc4c3)c3c(N)nccn32)C1 [Linsitinib] (partner 1 µM)
In short: as §1

[3] = compound: Cc1nc(NC(=O)N2CCC[C@H]2C(N)=O)sc1-c1ccnc(C(C)(C)C(F)(F)F)c1 [Alpelisib] + N=C(N)NC(=N)NCCc1ccccc1 [Phenformin] (partner 250 µM)
In short: as §1

[4] = compound: Cc1nc(NC(=O)N2CCC[C@H]2C(N)=O)sc1-c1ccnc(C(C)(C)C(F)(F)F)c1 [Alpelisib] + COc1cccc2cc(-c3nc([C@H]4CC[C@H](C(=O)O)CC4)n4ncnc(N)c34)[nH]c12 [OSI-027] (partner 0.5 µM)
In short: as §1

Cell Line	relative viability ([1]; first compound 0.01 µM)	relative viability ([1]; first compound 0.03162 µM)	relative viability ([1]; first compound 0.1 µM)	relative viability ([1]; first compound 0.3162 µM)	relative viability ([1]; first compound 1 µM)	relative viability ([2]; first compound 0.03162 µM)	relative viability ([2]; first compound 0.3162 µM)	relative viability ([2]; first compound 1 µM)	relative viability ([3]; first compound 0.04 µM)	relative viability ([3]; first compound 0.1265 µM)	relative viability ([3]; first compound 0.4 µM)	relative viability ([3]; first compound 1.265 µM)	relative viability ([3]; first compound 4 µM)	relative viability ([4]; first compound 0.04 µM)	relative viability ([4]; first compound 0.1265 µM)	relative viability ([4]; first compound 0.4 µM)	relative viability ([4]; first compound 1.265 µM)	relative viability ([4]; first compound 4 µM)	relative viability ([2]; first compound 0.1 µM)
NCI-H358	0.676	0.503	0.671	0.376	0.366	0.686	1	0.79	0.309	0.321	0.338	0.242	0.16	0.558	0.767	0.572	0.292	0.121	
NCI-H441	0.643	0.452	0.399	0.387	0.206	0.555	0.491	0.345	0.955	0.749	0.832	0.469	0.45	0.656	0.64	0.643	0.296	0.305	0.527
NCI-H460	0.95	0.34	0.627	0.186	0.105	0.677	0.879	0.777	0.484	0.526	0.554	0.447	0.142	0.545	0.623	0.534	0.242	0.137	0.839
NCI-H520	1.08	0.931	0.888	0.614	0.311	1.06	1.02	0.956	0.55	0.439	0.417	0.316	0.311	0.21	0.239	0.229	0.188	0.189	1.13
NCI-H596	0.981	0.978	1.03	0.779	0.483	1.07	1.12	1.06	0.669	0.709	0.695	0.421	0.329	0.629	0.571	0.589	0.457	0.357	0.918
NCI-H647	1.29	1.2	0.944	0.855	0.496	1.08	1.03	1.14	0.396	0.421	0.53	0.378	0.359	0.614	0.576	0.626	0.392	0.471	0.971
NCI-H650	0.701	0.892	0.492	0.442	0.334	0.709	0.297	0.595	0.469	0.429	0.534	0.349	0.369	0.552	0.435	0.488	0.357	0.325	0.83
NCI-H661	0.511	0.334	0.521	0.364	0.269	0.573	0.663	0.637	0.285	0.281	0.253	0.245	0.262	0.628	0.668	0.709	0.523	0.493	0.516
NCI-H727	0.239	0.344	0.281	0.229	0.264	0.265	0.415	0.394	0.533	0.555	0.498	0.412	0.215	0.753	0.397	0.522	0.359	0.391	0.281
NCI-H838	0.819	0.584	0.456	0.305	0.254	0.979		1.14	0.523	0.507	0.549	0.41	0.355	0.386	0.366	0.317	0.244	0.211	1.01
NCI-H1355	0.759	0.687	0.643	0.374	0.218	0.713	0.801	0.758	0.421	0.404	0.438	0.433	0.332	0.406	0.325	0.311	0.285	0.235	0.709
NCI-H1395	1.18	1.16	0.924	0.857	0.77	0.948		1.13	0.458	0.395	0.46	0.374	0.434	0.593	0.558	0.717	0.588	0.634	1.02
NCI-H1437	0.962	0.6	0.702	0.292	0.155	0.972	0.918	0.871	0.326	0.296	0.291	0.232	0.215	0.796	0.842	0.754	0.527	0.319	0.959
NCI-H1563	1.13	1.21	1.1	0.929	0.677	1.2	1.3	1.25	0.637	0.698	0.64	0.604	0.589	0.743	0.774	0.7	0.584	0.541	1.11
NCI-H1651	0.938		0.801	0.514	0.285	0.869	1.02	1.09	0.369	0.3	0.33	0.295	0.275	0.638	0.688	0.646	0.569	0.473	1.09
NCI-H1666	0.775	0.536	0.459	0.337	0.39	0.853	0.922	0.841	0.557	0.602	0.576	0.591	0.564	0.837	0.826	0.807	0.609	0.536	
NCI-H1734	0.937	0.794	0.809	0.656	0.309	0.859	0.759	0.808	0.376		0.349	0.275	0.23	0.513		0.455	0.278	0.201	0.847

Cell Line	relative viability ([1]; first compound 0.01 µM)	relative viability ([1]; first compound 0.03162 µM)	relative viability ([1]; first compound 0.1 µM)	relative viability ([1]; first compound 0.3162 µM)	relative viability ([1]; first compound 1 µM)	relative viability ([2]; first compound 0.03162 µM)	relative viability ([2]; first compound 0.3162 µM)	relative viability ([2]; first compound 1 µM)	relative viability ([3]; first compound 0.04 µM)	relative viability ([3]; first compound 0.1265 µM)	relative viability ([3]; first compound 0.4 µM)	relative viability ([3]; first compound 1.265 µM)	relative viability ([3]; first compound 4 µM)	relative viability ([4]; first compound 0.04 µM)	relative viability ([4]; first compound 0.1265 µM)	relative viability ([4]; first compound 0.4 µM)	relative viability ([4]; first compound 1.265 µM)	relative viability ([4]; first compound 4 µM)	relative viability ([2]; first compound 0.1 µM)
NCI-H1755	0.976	1.05	1.02	0.885	0.392	0.946	0.978	0.91	0.653	0.601	0.68	0.574	0.433	0.684	0.575	0.719	0.55	0.509	0.889
NCI-H1792	0.466	0.237	0.394	0.229	0.22	0.505	0.484	0.516	0.593	0.262	0.291	0.0902	0.0842	0.653	0.866	0.677	0.44	0.292	0.417
NCI-H1793	1.04	0.875	0.612	0.225	0.188	0.877	0.893	0.897	0.365	0.322	0.365	0.301	0.238	0.284	0.24	0.228	0.195	0.161	
NCI-H1915	1.11	1.13	1.12	1.02	0.863	1.05	1.05	1.04	0.361	0.378	0.389	0.346	0.347	0.628	0.597	0.61	0.558	0.401	1
NCI-H1944	1.11	1.14	1.05	0.771	0.836	1.17	1.33	1.15	0.194	0.214	0.182	0.16	0.138	0.365	0.401	0.332	0.281	0.223	0.872
NCI-H1975	1.09	1.03	0.822	0.706	0.339	1	0.725	1.05	0.417	0.41	0.387	0.298	0.208	0.675	0.714	0.656	0.326	0.228	0.962
NCI-H1993	0.684	0.777	0.703	0.603	0.681	0.668	0.882	0.746	0.501	0.534	0.443	0.539	0.507	0.596	0.492	0.524	0.571	0.521	
NCI-H2009	1.25	1.2	1.16	1.03	0.765	1.19	1.09	1.06	0.502	0.458	0.555	0.456	0.468	0.602	0.574	0.655	0.428	0.429	1.03
NCI-H2023	0.622	0.507	0.566	0.292	0.143	0.655	0.831	0.666	0.404	0.408	0.371	0.287	0.282	0.357	0.33	0.311	0.192	0.156	0.552
NCI-H2085	0.884	0.847	0.82	0.753	0.422	0.862	0.797	1.01	0.73	0.631	0.782	0.698	0.621	0.826	0.658	0.709	0.585	0.574	0.626
NCI-H2087	1.03	0.845	0.819	0.632	0.29	0.882		0.868	0.491	0.483	0.501	0.36	0.284	0.503	0.484	0.482	0.342	0.336	0.94
NCI-H2126	0.739	0.593	0.536	0.416	0.701	0.804	0.757	0.681	0.541	0.498	0.501	0.381	0.343	0.796	0.67	0.667	0.576	0.38	0.699
NCI-H2228	0.637	0.768	0.576		0.368	0.819	0.773	0.587	0.363	0.284	0.306	0.171	0.175	0.612	0.53	0.385	0.239	0.152	0.587
NCI-H2347	1.03	0.877	0.883	0.885	0.521	0.941	0.76	0.964	0.445	0.299	0.416	0.38	0.376	0.484	0.398	0.356	0.3	0.233	1.01
NCI-H2405	0.871	0.81	0.702	0.404	0.393	0.952		0.983	0.371	0.345	0.368	0.304	0.272	0.588	0.534	0.639	0.417	0.384	0.776
NCI-H3122	1.04	1.04	1.07	0.763	0.289	1	1.01	1.13	0.409	0.403	0.41	0.399	0.316	0.928	0.791	0.648	0.37	0.176	0.895
PC-3 [JPC-3]	0.943	1.01	0.971	0.867	0.834	0.909	1.02	1.03	0.502	0.496	0.503	0.454	0.463	0.831	0.642	0.68	0.593	0.488	
